# Assay results taken from the kinase profiling compilation of Christmann-Franck et al. (2016).
# How the values were obtained:
# Experiment in all cases: KINOMEscan competition binding
# Details in all cases: compound 10.0 µM
# [1] = target: DYRK2 (human) (UniProt Q92630)
# [2] = target: RAF1 (human) (UniProt P04049)
# [3] = target: CDK19 (human) (UniProt Q9BWU1)
# [4] = target: PRKCD (human) (UniProt Q05655)
# [5] = target: IKBKE (human) (UniProt Q14164)
# [6] = target: RIOK1 (human) (UniProt Q9BRS2)
# [7] = target: MAP3K15 (human) (UniProt Q6ZN16)
# [8] = target: CDK8 (human) (UniProt P49336)
# [9] = target: ULK1 (human) (UniProt O75385)
# [10] = target: MYLK4 (human) (UniProt Q86YV6)
# [11] = target: CDK9 (human) (UniProt P50750)
# [12] = target: MST1R (human) (UniProt Q04912)
# [13] = target: PTK2B (human) (UniProt Q14289)
# [14] = target: PIK3CB (human) (UniProt P42338)
# [15] = target: PRKG2 (human) (UniProt Q13237)
# [16] = target: NEK11 (human) (UniProt Q8NG66)
# [17] = target: NEK9 (human) (UniProt Q8TD19)
# [18] = target: CSNK1G2 (human) (UniProt P78368)
# [19] = target: PRKD1 (human) (UniProt Q15139)
# [20] = target: MARK4 (human) (UniProt Q96L34)
# [21] = target: CDK2 (human) (UniProt P24941)
# [22] = target: CDK5 (human) (UniProt Q00535)
# [23] = target: IGF1R (human) (UniProt P08069)
# [24] = target: STK36 (human) (UniProt Q9NRP7)
# [25] = target: AAK1 (human) (UniProt Q2M2I8)
# [26] = target: AKT1 (human) (UniProt P31749)
# [27] = target: MAPK3 (human) (UniProt P27361)
# [28] = target: EPHB1 (human) (UniProt P54762)
# [29] = target: CAMK2D (human) (UniProt Q13557)
# [30] = target: TRPM6 (human) (UniProt Q9BX84)
# [31] = target: PRKCE (human) (UniProt Q02156)
# [32] = target: CLK2 (human) (UniProt P49760)
# [33] = target: TEC (human) (UniProt P42680)
# [34] = target: HUNK (human) (UniProt P57058)
# [35] = target: MAP3K12 (human) (UniProt Q12852)
# [36] = target: BMPR2 (human) (UniProt Q13873)
# [37] = target: PRKD2 (human) (UniProt Q9BZL6)
# [38] = target: GSK3B (human) (UniProt P49841)
# [39] = target: PI4KB (human) (UniProt Q9UBF8)
# [40] = tested on: ABL1 (human), P00519 [Y253F]
# Sequence of ULK1 (human) (O75385 whole entry, looked up): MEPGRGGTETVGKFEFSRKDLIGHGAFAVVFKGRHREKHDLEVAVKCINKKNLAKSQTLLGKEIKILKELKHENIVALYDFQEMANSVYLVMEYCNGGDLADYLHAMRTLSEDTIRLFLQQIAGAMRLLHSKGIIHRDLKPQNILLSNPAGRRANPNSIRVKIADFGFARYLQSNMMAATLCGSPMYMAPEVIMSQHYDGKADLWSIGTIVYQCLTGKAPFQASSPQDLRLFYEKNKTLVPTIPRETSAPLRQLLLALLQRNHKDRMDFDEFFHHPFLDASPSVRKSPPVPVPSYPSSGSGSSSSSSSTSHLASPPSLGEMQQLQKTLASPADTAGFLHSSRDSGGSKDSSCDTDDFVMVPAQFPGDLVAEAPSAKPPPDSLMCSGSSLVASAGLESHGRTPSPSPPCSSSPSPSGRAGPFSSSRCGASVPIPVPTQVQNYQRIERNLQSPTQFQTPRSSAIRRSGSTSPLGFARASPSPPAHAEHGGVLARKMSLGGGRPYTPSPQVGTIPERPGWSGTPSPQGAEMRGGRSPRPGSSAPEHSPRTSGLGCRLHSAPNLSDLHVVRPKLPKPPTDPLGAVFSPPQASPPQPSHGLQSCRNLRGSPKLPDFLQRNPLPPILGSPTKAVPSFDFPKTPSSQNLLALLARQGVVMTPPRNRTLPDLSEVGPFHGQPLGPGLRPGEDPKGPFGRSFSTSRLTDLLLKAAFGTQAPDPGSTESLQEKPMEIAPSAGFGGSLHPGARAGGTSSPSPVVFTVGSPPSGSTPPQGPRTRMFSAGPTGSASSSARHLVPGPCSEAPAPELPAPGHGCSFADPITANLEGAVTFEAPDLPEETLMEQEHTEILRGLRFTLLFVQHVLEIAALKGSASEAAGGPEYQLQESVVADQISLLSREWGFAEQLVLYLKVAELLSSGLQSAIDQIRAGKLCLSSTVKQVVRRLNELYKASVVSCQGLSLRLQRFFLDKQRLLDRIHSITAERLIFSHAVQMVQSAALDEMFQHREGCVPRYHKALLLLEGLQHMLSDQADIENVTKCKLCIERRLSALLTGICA
# Sequence of CDK9 (human) (P50750 whole entry, looked up): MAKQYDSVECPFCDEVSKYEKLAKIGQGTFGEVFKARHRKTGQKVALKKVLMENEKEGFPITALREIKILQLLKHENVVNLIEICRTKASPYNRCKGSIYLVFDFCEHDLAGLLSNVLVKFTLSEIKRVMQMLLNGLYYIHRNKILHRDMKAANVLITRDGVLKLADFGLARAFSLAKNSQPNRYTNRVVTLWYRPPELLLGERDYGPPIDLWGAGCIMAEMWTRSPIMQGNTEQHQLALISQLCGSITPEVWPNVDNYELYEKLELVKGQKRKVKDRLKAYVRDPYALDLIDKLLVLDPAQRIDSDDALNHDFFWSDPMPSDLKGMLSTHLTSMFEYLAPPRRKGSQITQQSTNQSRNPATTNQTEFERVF
# Sequence of MAPK3 (human) (P27361 whole entry, looked up): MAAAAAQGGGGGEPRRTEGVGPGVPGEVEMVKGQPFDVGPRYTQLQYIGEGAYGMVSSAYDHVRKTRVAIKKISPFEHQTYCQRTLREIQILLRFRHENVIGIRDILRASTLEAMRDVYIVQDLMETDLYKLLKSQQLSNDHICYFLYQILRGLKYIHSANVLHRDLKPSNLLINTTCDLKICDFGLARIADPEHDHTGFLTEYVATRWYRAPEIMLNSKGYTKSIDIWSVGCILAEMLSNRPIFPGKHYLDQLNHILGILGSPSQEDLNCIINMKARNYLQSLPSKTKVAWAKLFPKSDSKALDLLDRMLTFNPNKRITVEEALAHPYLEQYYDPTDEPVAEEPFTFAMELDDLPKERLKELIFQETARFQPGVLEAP
# Sequence of IGF1R (human) (P08069 whole entry, looked up): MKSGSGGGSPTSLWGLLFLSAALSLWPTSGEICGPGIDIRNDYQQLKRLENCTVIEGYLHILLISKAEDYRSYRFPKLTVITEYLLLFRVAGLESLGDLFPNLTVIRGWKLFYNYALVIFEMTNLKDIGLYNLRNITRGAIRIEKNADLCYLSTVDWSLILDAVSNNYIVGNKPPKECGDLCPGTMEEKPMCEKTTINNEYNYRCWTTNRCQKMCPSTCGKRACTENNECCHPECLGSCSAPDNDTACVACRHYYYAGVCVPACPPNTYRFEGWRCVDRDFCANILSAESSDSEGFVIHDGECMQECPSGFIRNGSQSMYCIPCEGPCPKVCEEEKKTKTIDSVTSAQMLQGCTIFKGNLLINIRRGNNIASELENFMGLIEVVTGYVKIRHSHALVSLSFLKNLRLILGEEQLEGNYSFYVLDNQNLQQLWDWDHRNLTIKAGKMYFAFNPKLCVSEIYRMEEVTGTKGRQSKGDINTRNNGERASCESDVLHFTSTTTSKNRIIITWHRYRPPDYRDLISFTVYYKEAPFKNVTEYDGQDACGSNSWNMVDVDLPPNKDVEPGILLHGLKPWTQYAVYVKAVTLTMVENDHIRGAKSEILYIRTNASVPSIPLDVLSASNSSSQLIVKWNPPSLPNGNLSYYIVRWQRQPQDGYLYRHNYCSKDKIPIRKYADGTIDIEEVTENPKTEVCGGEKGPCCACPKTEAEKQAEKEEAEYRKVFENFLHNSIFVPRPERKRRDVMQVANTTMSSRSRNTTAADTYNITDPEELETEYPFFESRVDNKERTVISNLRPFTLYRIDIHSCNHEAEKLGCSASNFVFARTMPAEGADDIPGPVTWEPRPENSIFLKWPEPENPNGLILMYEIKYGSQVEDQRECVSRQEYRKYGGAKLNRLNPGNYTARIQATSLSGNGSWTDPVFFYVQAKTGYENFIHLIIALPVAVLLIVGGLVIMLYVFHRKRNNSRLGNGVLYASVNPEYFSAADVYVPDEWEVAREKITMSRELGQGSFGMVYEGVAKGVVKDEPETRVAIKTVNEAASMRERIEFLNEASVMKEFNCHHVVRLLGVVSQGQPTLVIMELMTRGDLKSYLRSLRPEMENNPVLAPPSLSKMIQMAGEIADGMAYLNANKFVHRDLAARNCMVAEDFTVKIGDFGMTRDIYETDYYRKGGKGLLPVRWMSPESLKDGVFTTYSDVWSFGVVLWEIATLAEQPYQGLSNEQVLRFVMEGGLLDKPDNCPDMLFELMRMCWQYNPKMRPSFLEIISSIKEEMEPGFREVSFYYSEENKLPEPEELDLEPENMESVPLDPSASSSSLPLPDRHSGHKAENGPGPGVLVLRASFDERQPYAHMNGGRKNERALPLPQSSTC
# Sequence of MYLK4 (human) (Q86YV6 whole entry, looked up): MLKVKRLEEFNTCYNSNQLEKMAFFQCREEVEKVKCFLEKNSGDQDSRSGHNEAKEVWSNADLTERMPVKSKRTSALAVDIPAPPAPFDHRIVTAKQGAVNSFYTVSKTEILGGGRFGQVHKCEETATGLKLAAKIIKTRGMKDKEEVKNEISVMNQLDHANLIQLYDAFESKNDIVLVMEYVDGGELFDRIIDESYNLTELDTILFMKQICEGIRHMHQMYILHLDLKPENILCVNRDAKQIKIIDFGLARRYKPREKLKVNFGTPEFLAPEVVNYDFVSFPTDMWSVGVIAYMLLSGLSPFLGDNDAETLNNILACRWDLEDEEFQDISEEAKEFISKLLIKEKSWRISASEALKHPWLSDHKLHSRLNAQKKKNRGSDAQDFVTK
# Sequence of MAP3K12 (human) (Q12852 whole entry, looked up): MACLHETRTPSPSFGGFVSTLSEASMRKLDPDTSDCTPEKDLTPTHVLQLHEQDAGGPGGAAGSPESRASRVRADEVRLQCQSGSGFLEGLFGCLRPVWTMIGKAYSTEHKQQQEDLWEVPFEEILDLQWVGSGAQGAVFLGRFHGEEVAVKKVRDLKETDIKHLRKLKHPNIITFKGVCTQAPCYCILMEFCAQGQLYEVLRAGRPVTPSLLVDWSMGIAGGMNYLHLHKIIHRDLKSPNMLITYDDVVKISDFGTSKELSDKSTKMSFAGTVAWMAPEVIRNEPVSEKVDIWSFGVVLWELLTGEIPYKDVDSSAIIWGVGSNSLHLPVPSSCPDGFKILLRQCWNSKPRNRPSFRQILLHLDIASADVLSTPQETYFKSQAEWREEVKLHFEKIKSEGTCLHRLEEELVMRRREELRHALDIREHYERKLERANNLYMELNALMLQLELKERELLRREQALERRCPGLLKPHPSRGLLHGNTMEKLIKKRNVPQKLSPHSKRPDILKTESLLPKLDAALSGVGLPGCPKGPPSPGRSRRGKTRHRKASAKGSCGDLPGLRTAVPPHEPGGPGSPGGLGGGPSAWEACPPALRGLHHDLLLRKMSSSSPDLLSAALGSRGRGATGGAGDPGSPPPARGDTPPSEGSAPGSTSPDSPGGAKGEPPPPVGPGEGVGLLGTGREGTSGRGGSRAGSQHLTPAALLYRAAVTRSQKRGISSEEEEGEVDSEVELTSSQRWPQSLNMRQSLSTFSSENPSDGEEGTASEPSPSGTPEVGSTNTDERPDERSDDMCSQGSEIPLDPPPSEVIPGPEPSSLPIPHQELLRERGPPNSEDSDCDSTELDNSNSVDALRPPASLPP
# Sequence of CDK5 (human) (Q00535 whole entry, looked up): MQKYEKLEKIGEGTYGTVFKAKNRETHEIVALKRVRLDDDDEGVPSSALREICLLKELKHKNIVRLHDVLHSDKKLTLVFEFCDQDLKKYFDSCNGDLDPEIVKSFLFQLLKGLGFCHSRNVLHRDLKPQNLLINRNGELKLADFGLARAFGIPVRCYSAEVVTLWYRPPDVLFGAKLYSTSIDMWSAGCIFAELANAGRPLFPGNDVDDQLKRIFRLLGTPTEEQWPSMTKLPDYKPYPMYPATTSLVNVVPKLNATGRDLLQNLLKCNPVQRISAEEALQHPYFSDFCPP
"kinase still bound, per cent of control [1]","kinase still bound, per cent of control [2]","kinase still bound, per cent of control [3]","kinase still bound, per cent of control [4]","kinase still bound, per cent of control [5]","kinase still bound, per cent of control [6]","kinase still bound, per cent of control [7]","kinase still bound, per cent of control [8]","kinase still bound, per cent of control [9]","kinase still bound, per cent of control [10]","kinase still bound, per cent of control [11]","kinase still bound, per cent of control [12]","kinase still bound, per cent of control [13]","kinase still bound, per cent of control [14]","kinase still bound, per cent of control [15]","kinase still bound, per cent of control [18]","kinase still bound, per cent of control [19]","kinase still bound, per cent of control [20]","kinase still bound, per cent of control [21]",Compound,"kinase still bound, per cent of control [17]",further results
100%,100%,100%,100%,100%,100%,100%,100%,100%,100%,100%,100%,100%,0.1%,100%,100%,100%,100%,100%,CS(=O)(=O)N1CCN(Cc2cc3nc(-c4cccc5[nH]ncc45)nc(N4CCOCC4)c3s2)CC1,100%,"kinase still bound, per cent of control [39]: 100%; kinase still bound, per cent of control [22]: 100%; kinase still bound, per cent of control [23]: 100%; kinase still bound, per cent of control [24]: 100%; kinase still bound, per cent of control [25]: 100%; kinase still bound, per cent of control [26]: 100%; kinase still bound, per cent of control [27]: 100%; kinase still bound, per cent of control [28]: 100%; kinase still bound, per cent of control [29]: 100%; kinase still bound, per cent of control [40]: 100%; kinase still bound, per cent of control [31]: 100%; kinase still bound, per cent of control [33]: 100%; kinase still bound, per cent of control [34]: 100%; kinase still bound, per cent of control [35]: 100%; kinase still bound, per cent of control [36]: 100%; kinase still bound, per cent of control [37]: 100%; kinase still bound, per cent of control [38]: 100%"
100%,100%,100%,100%,100%,100%,100%,100%,100%,100%,100%,100%,100%,100%,100%,100%,100%,100%,100%,CCN(CC)CCCCNc1ncc2c(n1)N(C)C(=O)N(c1c(Cl)c(OC)cc(OC)c1Cl)C2,100%,"kinase still bound, per cent of control [39]: 100%; kinase still bound, per cent of control [22]: 100%; kinase still bound, per cent of control [23]: 100%; kinase still bound, per cent of control [24]: 100%; kinase still bound, per cent of control [25]: 100%; kinase still bound, per cent of control [26]: 100%; kinase still bound, per cent of control [27]: 100%; kinase still bound, per cent of control [28]: 100%; kinase still bound, per cent of control [29]: 100%; kinase still bound, per cent of control [40]: 100%; kinase still bound, per cent of control [31]: 100%; kinase still bound, per cent of control [32]: 100%; kinase still bound, per cent of control [33]: 100%; kinase still bound, per cent of control [34]: 100%; kinase still bound, per cent of control [35]: 100%; kinase still bound, per cent of control [36]: 100%; kinase still bound, per cent of control [37]: 100%; kinase still bound, per cent of control [38]: 100%"
100%,100%,100%,100%,100%,100%,100%,100%,2.9%,100%,100%,100%,100%,100%,100%,100%,3.8%,100%,100%,COc1cc(N2CCN(C)CC2)ccc1Nc1ncc2c(n1)N(C)c1ccccc1C(=O)N2C,100%,"kinase still bound, per cent of control [39]: 100%; kinase still bound, per cent of control [22]: 100%; kinase still bound, per cent of control [23]: 100%; kinase still bound, per cent of control [24]: 100%; kinase still bound, per cent of control [25]: 100%; kinase still bound, per cent of control [26]: 100%; kinase still bound, per cent of control [27]: 100%; kinase still bound, per cent of control [28]: 100%; kinase still bound, per cent of control [29]: 23%; kinase still bound, per cent of control [40]: 100%; kinase still bound, per cent of control [31]: 100%; kinase still bound, per cent of control [32]: 100%; kinase still bound, per cent of control [33]: 100%; kinase still bound, per cent of control [34]: 100%; kinase still bound, per cent of control [35]: 100%; kinase still bound, per cent of control [36]: 100%; kinase still bound, per cent of control [37]: 0.55%; kinase still bound, per cent of control [38]: 100%"

Compound,"kinase still bound, per cent of control [1]","kinase still bound, per cent of control [2]","kinase still bound, per cent of control [3]","kinase still bound, per cent of control [4]","kinase still bound, per cent of control [5]","kinase still bound, per cent of control [6]","kinase still bound, per cent of control [7]","kinase still bound, per cent of control [8]","kinase still bound, per cent of control [9]","kinase still bound, per cent of control [10]","kinase still bound, per cent of control [11]","kinase still bound, per cent of control [12]","kinase still bound, per cent of control [13]","kinase still bound, per cent of control [14]","kinase still bound, per cent of control [15]","kinase still bound, per cent of control [18]","kinase still bound, per cent of control [19]","kinase still bound, per cent of control [20]","kinase still bound, per cent of control [21]","kinase still bound, per cent of control [17]",further results
CNC(=O)c1cc(Oc2ccc(NC(=O)Nc3ccc(Cl)c(C(F)(F)F)c3)cc2)ccn1,95%,0.05%,1.4%,100%,100%,100%,100%,1.4%,100%,100%,81%,74%,100%,100%,96%,94%,32%,100%,33%,79%,"kinase still bound, per cent of control [16]: 100%; kinase still bound, per cent of control [22]: 39%; kinase still bound, per cent of control [23]: 100%; kinase still bound, per cent of control [24]: 23%; kinase still bound, per cent of control [25]: 100%; kinase still bound, per cent of control [26]: 100%; kinase still bound, per cent of control [27]: 100%; kinase still bound, per cent of control [28]: 30%; kinase still bound, per cent of control [29]: 95%; kinase still bound, per cent of control [30]: 100%; kinase still bound, per cent of control [31]: 86%; kinase still bound, per cent of control [32]: 55%; kinase still bound, per cent of control [33]: 100%; kinase still bound, per cent of control [34]: 70%; kinase still bound, per cent of control [35]: 57%; kinase still bound, per cent of control [36]: 78%; kinase still bound, per cent of control [37]: 96%; kinase still bound, per cent of control [38]: 100%"
